Measured values as given in article PMC10648852, “Molecular drivers of resistance to sulbactam-durlobactam in contemporary clinical isolates of Acinetobacter baumannii” (Antimicrobial Agents and Chemotherapy, 2023).

Assays:
Assay in all cases: microbe, parasite or virus in culture
[1] = system: ABC clinical isolates with SUL-DUR MIC > 4 µg/mL; type: cell-based, Acinetobacter baumannii-calcoaceticus complex
How it was run: (§1)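 Broth microdilution MICs following CLSI methods, interpreted with CLSI breakpoints where available. Sulbactam tested as twofold dilutions combined with fixed 4 µg/mL durlobactam.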

[2] = system: A. pittii clinical isolates; type: cell-based
How it was run: as §1

[3] = system: A. nosocomialis clinical isolate; type: cell-based; conditions: isolate ARC7023 (IHMA 2118812), France, BSI, 2019
How it was run: as §1

[4] = system: A. baumannii clinical isolates; type: cell-based
How it was run: as §1

colistin [CST]
1 µg/mL: MIC90 [1] | MIC ([2]; isolate ARC6952 (IHMA 1899008), Romania, RTI, 2018) | MIC [3] | MIC ([4]; isolate ARC6819 (IHMA 1683267), Thailand, RTI, 2017) | MIC ([4]; isolate ARC6823 (IHMA 1620872), Greece, SSSI, 2017) | MIC ([4]; isolate ARC6824 (IHMA 1625487), Argentina, BSI, 2017) | MIC ([4]; isolate ARC7012 (IHMA 2010001), Thailand, RTI, 2019) | MIC ([4]; isolate ARC7014 (IHMA 2045328), Guatemala, IAI, 2019) | MIC ([4]; isolate ARC7021 (IHMA 1966347), Guatemala, RTI, 2019) | MIC ([4]; isolate ARC7024 (IHMA 2059448), Turkey, RTI, 2019)
≤0.25 µg/mL: MIC Min [1] | MIC ([2]; isolate ARC6951 (IHMA 1776233), Philippines, RTI, 2018) | MIC ([2]; isolate ARC7087 (IHMA 2212062), Colombia, BSI, 2020) | MIC ([4]; isolate ARC6644 (IHMA 1420327), Mexico, UTI, 2016) | MIC ([4]; isolate ARC6645 (IHMA 1435703), France, UTI, 2016) | MIC ([4]; isolate ARC6648 (IHMA 1407634), Spain, RTI, 2016) | MIC ([4]; isolate ARC6652 (IHMA 1465642), Belgium, RTI, 2016) | MIC ([4]; isolate ARC6801 (IHMA 1662094), Thailand, RTI, 2017) | MIC ([4]; isolate ARC6802 (IHMA 1557073), Spain, UTI, 2017) | MIC ([4]; isolate ARC6803 (IHMA 1589408), Belgium, UTI, 2017) | MIC ([4]; isolate ARC6805 (IHMA 1558650), United States, RTI, 2017) | MIC ([4]; isolate ARC6808 (IHMA 1557168), Spain, RTI, 2017) | MIC ([4]; isolate ARC6813 (IHMA 1699543), Guatemala, UTI, 2017) | MIC ([4]; isolate ARC6818 (IHMA 1683261), Thailand, RTI, 2017) | MIC ([4]; isolate ARC6820 (IHMA 1647876), Argentina, RTI, 2017) | MIC ([4]; isolate ARC7017 (IHMA 2148446), Brazil, BSI, 2019) | MIC ([4]; isolate ARC7082 (IHMA 2160640), Belgium, BSI, 2020) | MIC ([4]; isolate ARC7084 (IHMA 2189596), Germany, RTI, 2020) | MIC ([4]; isolate ARC7085 (IHMA 2205747), Guatemala, IAI, 2020) | MIC ([4]; isolate ARC7086 (IHMA 2207563), Israel, RTI, 2020) | MIC ([4]; isolate ARC7088 (IHMA 2215554), Turkey, BSI, 2020) | MIC ([4]; isolate ARC7089 (IHMA 2240345), Argentina, BSI, 2020) | MIC ([4]; isolate ARC7091 (IHMA 2244564), Australia, RTI, 2020) | MIC ([4]; isolate ARC7093 (IHMA 2258783), United States, RTI, 2020) | MIC ([4]; isolate ARC7094 (IHMA 2296423), Turkey, RTI, 2020) | MIC ([4]; isolate ARC7095 (IHMA 2320843), Turkey, BSI, 2020)
0.5 µg/mL: MIC50 [1] | MIC ([2]; isolate ARC6949 (IHMA 1898982), Romania, RTI, 2018) | MIC ([4]; isolate ARC6646 (IHMA 1484127), United States, RTI, 2016) | MIC ([4]; isolate ARC6647 (IHMA 1386786), Argentina, RTI, 2016) | MIC ([4]; isolate ARC6650 (IHMA 1457337), Argentina, RTI, 2016) | MIC ([4]; isolate ARC6653 (IHMA 1308777), Vietnam, RTI, 2016) | MIC ([4]; isolate ARC6799 (IHMA 1562935), Spain, UTI, 2017) | MIC ([4]; isolate ARC6809 (IHMA 1699528), Guatemala, RTI, 2017) | MIC ([4]; isolate ARC6810 (IHMA 1699548), Guatemala, RTI, 2017) | MIC ([4]; isolate ARC6812 (IHMA 1699530), Guatemala, RTI, 2017) | MIC ([4]; isolate ARC6814 (IHMA 1699512), Guatemala, RTI, 2017) | MIC ([4]; isolate ARC6815 (IHMA 1699513), Guatemala, RTI, 2017) | MIC ([4]; isolate ARC6816 (IHMA 1699521), Guatemala, RTI, 2017) | MIC ([4]; isolate ARC6817 (IHMA 1699523), Guatemala, RTI, 2017) | MIC ([4]; isolate ARC6821 (IHMA 1699517), Guatemala, RTI, 2017) | MIC ([4]; isolate ARC6822 (IHMA 1637626), Guatemala, RTI, 2017) | MIC ([4]; isolate ARC6937 (IHMA 1562926), Spain, UTI, 2017) | MIC ([4]; isolate ARC6950 (IHMA 1820064), Israel, RTI, 2018) | MIC ([4]; isolate ARC6953 (IHMA 1909827), Turkey, IAI, 2018) | MIC ([4]; isolate ARC6954 (IHMA 1838192), Guatemala, SSSI, 2018) | MIC ([4]; isolate ARC6955 (IHMA 1825425), United States, RTI, 2018) | MIC ([4]; isolate ARC7008 (IHMA 2009813), Thailand, BSI, 2019) | MIC ([4]; isolate ARC7009 (IHMA 2043611), United States, UTI, 2019) | MIC ([4]; isolate ARC7010 (IHMA 2043398), United States, RTI, 2019) | MIC ([4]; isolate ARC7011 (IHMA 2104553), Germany, RTI, 2019) | MIC ([4]; isolate ARC7013 (IHMA 1962831), Argentina, RTI, 2019) | MIC ([4]; isolate ARC7015 (IHMA 2045327), Guatemala, UTI, 2019) | MIC ([4]; isolate ARC7016 (IHMA 2148441), Brazil, BSI, 2019) | MIC ([4]; isolate ARC7018 (IHMA 2045454), Guatemala, IAI, 2019) | MIC ([4]; isolate ARC7019 (IHMA 2114463), Thailand, RTI, 2019) | MIC ([4]; isolate ARC7020 (IHMA 2045326), Guatemala, RTI, 2019) | MIC ([4]; isolate ARC7022 (IHMA 2045319), Guatemala, IAI, 2019) | MIC ([4]; isolate ARC7025 (IHMA 2002121), Spain, RTI, 2019) | MIC ([4]; isolate ARC7026 (IHMA 2104494), Guatemala, BSI, 2019) | MIC ([4]; isolate ARC7083 (IHMA 2163687), United States, RTI, 2020) | MIC ([4]; isolate ARC7092 (IHMA 2258772), United States, BSI, 2020) | MIC ([4]; isolate ARC7161 (IHMA 2429252), Ukraine, RTI, 2021)
8 µg/mL: MIC ([4]; isolate ARC7156 (IHMA 2455450), Greece, RTI, 2021)
>8 µg/mL: MIC Max [1] | MIC ([4]; isolate ARC6800 (IHMA 1557526), Turkey, RTI, 2017) | MIC ([4]; isolate ARC7090 (IHMA 2244410), Poland, RTI, 2020)
0.25 µg/mL: MIC ([4]; isolate ARC7158 (IHMA 2523738), Italy, BSI, 2021) | MIC ([4]; isolate ARC7159 (IHMA 2456229), Malaysia, RTI, 2021) | MIC ([4]; isolate ARC7160 (IHMA 2458626), Thailand, RTI, 2021) | MIC ([4]; isolate ARC7162 (IHMA 2411847), United States, BSI, 2021) | MIC ([4]; isolate ARC7163 (IHMA 2477704), United States, BSI, 2021)
